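How tested: cells in 96-well plates exposed to compound for 48 hours at five concentrations. At the GI50, growth is halved. TGI marks complete inhibition of growth.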
Columns and labels:
Assay in all cases: growth of human tumour cells (NCI), 48 h
[1] = system: NCI-H226 lung
[2] = system: OVCAR-4 ovarian
[3] = system: HOP-62 NSCLC
[4] = system: SF-268 CNS
[5] = system: COLO 205 colon
[6] = system: RXF 393 renal
[7] = system: LOX IMVI melanoma
[8] = system: TK-10 renal
[9] = system: HS 578T breast
[10] = system: NCI/ADR-RES ovarian

SMILES	TGI [1] [µM]	TGI [2] [µM]	TGI [3] [µM]	TGI [4] [µM]	TGI [5] [µM]	TGI [6] [µM]	TGI [7] [µM]	TGI [8] [µM]	GI50 [1] [µM]	GI50 [2] [µM]	GI50 [4] [µM]	GI50 [5] [µM]	GI50 [6] [µM]	GI50 [9] [µM]	TGI [9] [µM]	GI50 [7] [µM]	GI50 [10] [µM]	TGI [10] [µM]	GI50 [8] [µM]
CC(C(=O)c1ccccc1)C1(O)C(=O)Nc2ccc(Cl)cc21 (stereo not given)	> 100	77.8	> 100	> 100	> 100	> 100	> 100	> 100	–	–	–	–	–	–	–	–	–	–	–
N#CC(C#N)=Cc1ccc(CP(=O)(O)O)cc1	> 100	> 100	> 100	> 100	> 100	–	> 100	> 100	–	–	–	–	–	–	–	–	–	–	–
Cc1cc(C)c(C(=O)O)c(SSc2cc(C)cc(C)c2C(=O)O)c1	> 100	> 100	> 100	> 100	> 100	> 100	> 100	> 100	–	–	–	–	–	–	–	–	–	–	–
c1ccc(SC23C4C5C6C4C2C6C53)nc1 (stereo not given)	> 100	> 100	> 100	> 31.6	> 100	–	> 100	> 100	–	–	–	–	–	–	–	–	–	–	–
O=C(Nc1ccc(F)cc1)Nc1ccc(Br)c(C(F)(F)F)c1	11.1	9.75	–	13.2	3.27	8.28	7.39	7.43	2.73	2.13	2.97	1.72	2.66	2.95	9.31	2.51	2.51	10.1	2.33
CCOC(=O)C1=C(C)N(NC(N)=O)C2(N)N(NC(N)=O)C(C)=C(C(=O)OCC)C12C(=O)OCC (stereo not given)	> 100	> 100	> 100	> 100	–	> 100	> 100	–	–	–	–	–	–	–	–	–	–	–	–
COc1ccc2oc(-c3ccc(OC)c(OC)c3OC)cc(=O)c2c1	81.1	> 100	> 100	> 100	> 100	93.8	> 100	> 100	–	–	–	–	–	–	–	–	–	–	–
COc1cc(C(C)c2cc3c(cc2OCCNC(=O)COc2cc4c(cc2C(C)c2cc(OC)c(OC)c(OC)c2)OCO4)OCO3)cc(OC)c1OC (stereo not given)	> 100	> 100	> 100	> 100	> 100	> 100	> 100	> 100	–	–	–	–	–	–	–	–	–	–	–
CCCCc1c2cnccc2c(CCCC)c2c1[nH]c1ccccc12	34	29.8	18.8	47.1	27.4	24.9	41.4	34.6	–	–	–	–	–	–	–	–	–	–	–
O=C1CNC(=O)c2[nH]cnc2N1	> 100	> 100	–	> 100	> 100	> 100	> 100	> 100	–	–	–	–	–	–	–	–	–	–	–
CCn1c2c(c3ccccc31)[C@@H](c1ccc(Cl)cc1)CC1C(=O)N(c3ccccc3)C(=O)C21 (stereo not given in full)	> 100	> 100	> 100	> 100	> 100	> 100	> 100	> 100	–	–	–	–	–	–	–	–	–	–	–
CC(=O)NC(CSC1=C2NC(=O)\C=C/C=C/C=C\C(C)C(O)CC(=O)/C(C)=C\CC(O)/C=C/C(C)C(O)C(C)C=C(C)C(=O)c3c(O)c(C)cc(c3C1=O)C2=O)C(=O)O (stereo not given)	> 100	> 100	> 100	–	79.6	–	> 100	> 100	–	–	–	–	–	–	> 100	–	–	> 100	–
Nc1ccc(COC(O)CN2CCCCC2)cc1[N+](=O)[O-] (stereo not given)	> 100	> 100	–	> 100	> 100	> 100	–	> 100	–	–	–	–	–	–	–	–	–	> 100	–
O=C(Nc1ccccc1-c1nn(CN2CCNCC2)c(=S)n(CN2CCNCC2)c1=O)C(F)(F)F	40.7	35.2	46.6	41.8	31	30.3	36.5	61.1	–	–	–	–	–	–	–	–	–	–	–
Cc1ccc(S(=O)(=O)c2ccc(C)cc2[N+](=O)[O-])cc1	> 100	> 100	> 100	> 100	> 100	> 100	> 100	> 100	–	–	–	–	–	–	–	–	–	–	–
CCOC(=O)C12C(C(=O)OC)=C(C)N(NC(=O)Nc3ccccc3)C1(N)N(NC(=O)Nc1ccccc1)C(C)=C2C(=O)OC (stereo not given)	> 100	> 100	49	> 86.7	> 56.2	74.3	33.6	> 100	–	–	–	–	–	–	–	–	–	–	–
COc1ccc2c(c1)NC1(O)c3ccccc3C(=O)C21O (stereo not given)	> 100	–	> 100	> 100	> 100	–	> 100	> 100	–	–	–	–	–	–	–	–	–	–	–
CCCN(CCC)C(=O)c1nc(N)nc(-c2ccc(OC)cc2)c1-c1ccc(OC)cc1	> 100	> 100	–	> 100	> 100	–	–	> 100	–	–	–	–	–	–	–	–	–	–	–
C/C(CC(=O)Nc1ccccc1C)=N/NS(=O)(=O)c1ccc(C)cc1	> 100	–	> 100	> 100	> 100	> 100	> 100	> 100	–	–	–	–	–	–	–	–	–	–	–
COC1CCC(OC)C(C2(C3CC(OC)CCC3OC)OC(=O)c3ccccc32)C1 (stereo not given)	> 100	> 100	> 100	> 100	> 100	> 100	–	> 100	–	–	–	–	–	–	–	–	–	–	–
COc1cc2c(cc1OC)C1Cc3ccc(OC)c(OC)c3C[N+]1([O-])CC2 (stereo not given)	–	> 100	> 100	> 100	–	–	–	> 100	–	–	–	–	–	–	–	–	–	–	–
Cc1cccc(C)c1N1C(=O)C(=O)C(c2nc3ccccc3s2)/C(=N/NC(=O)c2ccccc2O)C1=O (stereo not given)	56.5	> 100	> 100	> 68.8	> 86.9	17.2	> 100	> 100	–	–	–	–	–	–	–	–	–	–	–
COC(=O)C(CC(=O)Nc1ccc(Cl)c(Cl)c1)C(=O)C(=O)Nc1ccc(Cl)c(Cl)c1 (stereo not given)	> 100	> 100	> 100	> 100	> 100	> 100	> 100	> 100	–	–	–	–	–	–	–	–	–	–	–
NC(=O)c1cccc(OCC(O)CO)c1 (stereo not given)	> 100	> 100	> 100	> 100	> 100	–	–	> 100	–	–	–	–	–	–	> 100	–	–	> 100	–

— PubChem BioAssay (NCI)
